The values below come from patent publication US6716833B2, “Acetylenic α-amino acid-based sulfonamide hydroxamic acid tace inhibitors” (priority 1999, dated 2004).

SMILES strings stand for the structures.

The target of one test is TNF-α converting enzyme (TACE) (Homo sapiens, UniProt P78536). Nature of the test: TACE inhibition (fluorescent peptidyl substrate). In kind it is biochemical. The note with it: IC 50 nM (In Vitro Inhibition of TACE), Table 15.
TNF-α converting enzyme (TACE), sequence (P78536 215-824, species assumed): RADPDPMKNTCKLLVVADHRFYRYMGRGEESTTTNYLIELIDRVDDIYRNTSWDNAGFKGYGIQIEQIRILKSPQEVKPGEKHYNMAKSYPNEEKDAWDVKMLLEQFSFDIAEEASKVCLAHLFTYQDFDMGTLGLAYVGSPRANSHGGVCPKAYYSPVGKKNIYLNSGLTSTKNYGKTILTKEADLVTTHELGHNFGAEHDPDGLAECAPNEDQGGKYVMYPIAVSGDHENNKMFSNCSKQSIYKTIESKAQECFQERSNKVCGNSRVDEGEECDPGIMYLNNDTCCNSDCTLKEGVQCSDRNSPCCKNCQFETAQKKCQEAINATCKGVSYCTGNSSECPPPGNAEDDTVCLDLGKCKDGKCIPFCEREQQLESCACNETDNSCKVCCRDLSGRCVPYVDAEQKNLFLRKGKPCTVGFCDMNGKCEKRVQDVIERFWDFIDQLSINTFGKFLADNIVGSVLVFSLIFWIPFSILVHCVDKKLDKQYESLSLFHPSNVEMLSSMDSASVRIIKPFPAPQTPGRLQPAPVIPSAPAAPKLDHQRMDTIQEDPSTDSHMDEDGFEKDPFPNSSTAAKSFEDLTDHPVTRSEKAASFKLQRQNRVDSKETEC
Molecule `CC#CCOc1ccc(S(=O)(=O)N[C@H](Cc2ccc(F)cc2)C(=O)NO)cc1` [Example 316, (2R)-2-({[4-(But-2-ynyloxy)phenyl]sulfonyl}amino)-3-(4-fluorophenyl)-N-hydroxypropanamide] came in with an IC50 of 4 nM. As for `CC#CCOc1ccc(S(=O)(=O)N[C@H](Cc2ccc([N+](=O)[O-])cc2)C(=O)NO)cc1` [Example 317, (2R)-2-({[4-(But-2-ynyloxy)phenyl]sulfonyl}amino)-N-hydroxy-3-(4-nitrophenyl)propanamide], the IC50 was determined as 6.5 nM. For the molecule `CC#CCOc1ccc(S(=O)(=O)N2CCCC[C@@H]2C(=O)NO)cc1` [Example 318, (2R)-1-{[4-(But-2-ynyloxy)phenyl]sulfonyl}-N-hydroxypiperidine-2-carboxamide], the IC50 came to 11.9 nM.

In turn, `CC#CCOc1ccc(S(=O)(=O)N[C@H](CO)C(=O)NO)cc1` [Example 319, (2R)-2-({[4-(But-2-ynyloxy)phenyl]sulfonyl}amino)-N,3-dihydroxypropanamide] gave an IC50 of 10.5 nM.

`CC#CCOc1ccc(S(=O)(=O)N[C@H](COCc2ccccc2)C(=O)NO)cc1` [Example 320, (2R)-3-(Benzyloxy)-2-({[4-(but-2-ynyloxy)phenyl]sulfonyl}amino)-N-hydroxypropanamide] gave an IC50 of 7.4 nM.

`CC#CCOc1ccc(S(=O)(=O)N[C@H](Cc2cccs2)C(=O)NO)cc1` [Example 321, (2R)-2-({[4-(But-2-ynyloxy)phenyl]sulfonyl}amino)-N-hydroxy-3-thien-2-yl-propanamide]: the IC50 was found to be 4.7 nM. The same measure, in the same setting: the value for `CC#CCOc1ccc(S(=O)(=O)N[C@@H](C(=O)NO)[C@H](C)O)cc1` [Example 322, (2R,3S)-2-({[4-(But-2-ynyloxy)phenyl]sulfonyl}amino)-N,3-dihydroxybutanamide] was 11.8 nM; that for `CC#CCOc1ccc(S(=O)(=O)N[C@@H](C(=O)NO)[C@H](C)OCc2ccccc2)cc1` [Example 323, (2R,3S)-3-(Benzyloxy)-2-({[4-(but-2-ynyloxy)phenyl]sulfonyl}amino)-N-hydroxybutanamide] was 17.6 nM. Molecule `CC#CCOc1ccc(S(=O)(=O)N2CSC[C@@H]2C(=O)NO)cc1` [Example 324, (4S)-3-{[4-(But-2-ynyloxy)phenyl]sulfonyl}-N-hydroxy-1,3-thiazolidine-4-carboxamide] yielded an IC50 of 14.7 nM. As to `CC#CCOc1ccc(S(=O)(=O)N2Cc3ccccc3C[C@@H]2C(=O)NO)cc1` [Example 325, (3R)-2-{[4-(But-2-ynyloxy)phenyl]sulfonyl}-N-hydroxy-1,2,3,4-tetrahydroisoquinoline-3-carboxamide], the IC50 came out at 6.9 nM. In turn, `CC#CCOc1ccc(S(=O)(=O)N[C@H](Cc2ccc(OCc3ccccc3)cc2)C(=O)NO)cc1` [Example 326, (2R)-3-[4-(Benzyloxy)phenyl]-2-({[4-(but-2-ynyloxy)phenyl]sulfonyl}amino)-N-hydroxypropanamide] registered an IC50 of 58.6 nM. The same measure, in the same setting: the value for `CC#CCOc1ccc(S(=O)(=O)N[C@@H](C(=O)NO)c2ccccc2)cc1` [Example 327, (2R)-2-({[4-(But-2-ynyloxy)phenyl]sulfonyl}amino)-N-hydroxy-2-phenylethanamide] was 5.5 nM; that for `CC#CCOc1ccc(S(=O)(=O)N[C@H](CCCNC(C)=O)C(=O)NO)cc1` [Example 328, (2R)-5-(Acetylamino)-2-({[4-(but-2-ynyloxy)phenyl]sulfonyl}amino)-N-hydroxypentanamide] was 6.26 nM; that for `CC#CCOc1ccc(S(=O)(=O)N[C@H](CCCNC(=O)c2ccc3[nH]cnc3c2)C(=O)NO)cc1` [Example 329, N-[(4R)-4-({[4-(But-2-ynyloxy)phenyl]sulfonyl}amino)-5-(hydroxyamino)-5-oxopentyl]-1H-benzimidazole-5-carboxamide] was 6.88 nM. Turning to `CC#CCOc1ccc(S(=O)(=O)N[C@H](CCCNC(=O)c2ccccc2)C(=O)NO)cc1` [Example 330, N-[(4R)-4-({[4-(But-2-ynyloxy)phenyl]sulfonyl}amino)-5-(hydroxyamino)-5-oxopentyl]benzamide], the IC50 worked out at 3.58 nM.

`CC#CCOc1ccc(S(=O)(=O)N[C@H](CCCNC(=O)c2ccc(Br)cc2)C(=O)NO)cc1` [Example 331, 4-Bromo-N-[(4R)-4-({[4-(but-2-ynyloxy)phenyl]sulfonyl}amino)-5-(hydroxyamino)-5-oxopentyl]benzamide] registered an IC50 of 5.32 nM. `CC#CCOc1ccc(S(=O)(=O)N[C@H](CCCNC(=O)CCC)C(=O)NO)cc1` [Example 332, (2R)-2-({[4-(But-2-ynyloxy)phenyl]sulfonyl)amino)-5-(butyrylamino)-N-hydroxypentanamide] yielded an IC50 of 5.13 nM.

Consider `CC#CCOc1ccc(S(=O)(=O)N[C@H](CCCNC(=O)c2sccc2Cl)C(=O)NO)cc1` [Example 333, N-[(4R)-4-({[4-(But-2-ynyloxy)phenyl]sulfonyl}amino)-5-(hydroxyamino)-5-oxopentyl]-3-chlorothiophene-2-carboxamide], for which the IC50 came out at 4.21 nM. With `CC#CCOc1ccc(S(=O)(=O)N[C@H](CCCNC(=O)c2ccc(Cl)cc2)C(=O)NO)cc1` [Example 334, N-[(4R)-4-({[4-(But-2-ynyloxy)phenyl]sulfonyl}amino)-5-(hydroxyamino)-5-oxopentyl]-4-chlorobenzamide], the IC50 was determined as 4.7 nM. For the molecule `CC#CCOc1ccc(S(=O)(=O)N[C@H](CCCNC(=O)C2CCCCC2)C(=O)NO)cc1` [Example 335, N-[(4R)-4-({[4-(But-2-ynyloxy)phenyl]sulfonyl}amino)-5-(hydroxyamino)-5-oxopentyl]cyclohexanecarboxamide], the IC50 amounted to 6.5 nM. As for `CC#CCOc1ccc(S(=O)(=O)N[C@H](CCCNC(=O)c2c(C)noc2C)C(=O)NO)cc1` [Example 338, N-[(4R)-4-({[4-(But-2-ynyloxy)phenyl]sulfonyl)amino)-5-(hydroxyamino)-5-oxopentyl]-3,5-dimethylisoxazole-4-carboxamide], the IC50 was found to be 3.73 nM. Take `CC#CCOc1ccc(S(=O)(=O)N[C@H](CCCNC(=O)CCc2ccccc2)C(=O)NO)cc1` [Example 339, (2R)-2-({[4-(But-2-ynyloxy)phenyl]sulfonyl}amino)-N-hydroxy-5-[(3-phenylpropanoyl)amino]pentanamide]: the IC50 turned out to be 4.6 nM. In turn, `CC#CCOc1ccc(S(=O)(=O)N[C@H](CCCNC(=O)c2ccncc2)C(=O)NO)cc1` [Example 340, N-[(4R)-4-({[4-(But-2-ynyloxy)phenyl]sulfonyl}amino)-5-(hydroxyamino)-5-oxopentyl]isonicotinamide] displayed an IC50 of 6.67 nM.

Molecule `CC#CCOc1ccc(S(=O)(=O)N[C@H](CCCNC(=O)c2cccnc2)C(=O)NO)cc1` [Example 341, N-[(4R)-4-({[4-(But-2-ynyloxy)phenyl]sulfonyl}amino)-5-(hydroxyamino)-5-oxopentyl]nicotinamide] came in with an IC50 of 4.88 nM. Take `CC#CCOc1ccc(S(=O)(=O)N[C@H](CCCNC(=O)c2ccccc2OC)C(=O)NO)cc1` [Example 342, N-[(4R)-4-({[4-(But-2-ynyloxy)phenyl]sulfonyl}amino)-5-(hydroxyamino)-5-oxopentyl]-2-methoxybenzamide]: the IC50 amounted to 4.54 nM. In turn, `CC#CCOc1ccc(S(=O)(=O)N[C@H](CCCNC(=O)c2ccc(OC)cc2)C(=O)NO)cc1` [Example 343, N-[(4R)-4-({[4-(But-2-ynyloxy)phenyl]sulfonyl}amino)-5-(hydroxyamino)-5-oxopentyl]-4-methoxybenzamide] displayed an IC50 of 3.54 nM.

For the molecule `CC#CCOc1ccc(S(=O)(=O)N[C@H](CCCNC(=O)Cc2ccc([N+](=O)[O-])cc2)C(=O)NO)cc1` [Example 344, (2R)-2-({[4-(But-2-ynyloxy)phenyl]sulfonyl}amino)-N-hydroxy-5-{[2-(4-nitrophenyl)acetyl]amino}pentanamide], the IC50 is 5.24 nM.

`CC#CCOc1ccc(S(=O)(=O)N[C@H](CCCNC(=O)Cc2ccccc2)C(=O)NO)cc1` [Example 345, (2R)-2-({[4-(But-2-ynyloxy)phenyl]sulfonyl}amino)-N-hydroxy-5-[(2-phenylacetyl)amino]pentanamide] had an IC50 of 4.43 nM. The same measure, in the same setting: the value for `CC#CCOc1ccc(S(=O)(=O)N[C@H](CCCNC(=O)c2cnc3ccccc3c2)C(=O)NO)cc1` [Example 346, N-[(4R)-4-({[4-(But-2-ynyloxy)phenyl]sulfonyl}amino)-5-(hydroxyamino)-5-oxopentyl]quinoline-3-carboxamide] was 4.63 nM. `CC#CCOc1ccc(S(=O)(=O)N[C@H](CCCNC(=O)c2ccsc2)C(=O)NO)cc1` [Example 347, N-[(4R)-4-({[4-(But-2-ynyloxy)phenyl]sulfonyl}amino)-5-(hydroxyamino)-5-oxopentyl]thiophene-3-carboxamide]: the IC50 is 3.15 nM. The same measure, in the same setting: the value for `CC#CCOc1ccc(S(=O)(=O)N[C@H](CCCNC(=O)/C=C/c2ccccc2)C(=O)NO)cc1` [Example 348, (E)-N-[(4R)-4-({[4-(But-2-ynyloxy)phenyl]sulfonyl}amino)-5-(hydroxyamino)-5-oxopentyl]-3-phenylprop-2-enamide] was 6.25 nM. Still for that read-out and setting: the value for `CC#CCOc1ccc(S(=O)(=O)N[C@H](CCCCNC(=O)c2ccc3[nH]cnc3c2)C(=O)NO)cc1` [Example 349, N-[(5R)-5-({[4-(But-2-ynyloxy)phenyl]sulfunyl}amino)-6-(hydroxyamino)-6-oxohexyl]-1H-benzimidazole-5-carboxamide] was 9.41 nM; that for `CC#CCOc1ccc(S(=O)(=O)N[C@H](CCCCNC(=O)c2ccccc2)C(=O)NO)cc1` [Example 350, N-[(5R)-5-({[4-(But-2-ynyloxy)phenyl]sulfonyl}amino)-6-(hydroxyamino)-6-oxohexyl]benzamide] was 6.28 nM.

In turn, `CC#CCOc1ccc(S(=O)(=O)N[C@H](CCCCNC(=O)c2ccc(Br)cc2)C(=O)NO)cc1` [Example 351, 4-Bromo-N-[(5R)-5-({[4-(but-2-ynyloxy)phenyl]sulfonyl}amino)-6-(hydroxyamino)-6-oxohexyl]benzamide] came in with an IC50 of 9.57 nM.

The same test, now with this note: read-out: IC 50 nM (In Vitro Inhibition of TACE); Table 15.
As for `CC#CCOc1ccc(S(=O)(=O)N[C@H](CCCNC(=O)c2cc(C)oc2C)C(=O)NO)cc1` [Example 337, N-[(4R)-4-({[4-(But-2-ynyloxy)phenyl]sulfonyl}amino)-5-(hydroxyamino)-5-oxopentyl]-2,5-dimethyl-3-furamide], the IC50 is 4.2 nM.
